Test results from article PMC12058896, “Potent antimicrobial activity of hydrogel loaded with the antimicrobial peptide, D-Bac8c^2,5 Leu, against monospecies and polymicrobial biofilms of Staphylococcus aureus and Pseudomonas aeruginosa” (Frontiers in Microbiology, 2025).
Converted amounts (≈) assume the structure as drawn. Like-named read-outs stand apart in the source and are kept apart here. Values belong to the compound of their own block, whether it stands above or below them. Residues, ends and D or L forms follow the SMILES beside them.

Experiments:
BH1CC = experiment: microbe, parasite or virus in culture; type: cell-based, Staphylococcus aureus; settings: 18 h
Procedure: (§1) Strains used in the study were isolates of methicillin-resistant Staphylococcus aureus (MRSA); USA300 LAC, BH1CC ([O’Neill et al., 2007]), methicillin-sensitive S. aureus (MSSA); SH1000 ([Horsburgh et al., 2002]) and BH48 ([O’Neill et al., 2007]); and Pseudomonas aeruginosa PAO1 (ATCC […]). Clinical isolates were obtained from a previous collection of isolates of infected wounds. Bacteria were grown aerobically at 37°C with shaking at 200 rpm in Brain Heart Infusion (BHI, Oxoid, Ireland). Selective media, Mannitol Salt Agar (SLS, Ireland) and MacConkey agar (SLS, Ireland), for re-isolation of bacterial strains from mixed species biofilms were used. Bolton Broth (Fannin, Ireland) supplemented with 50% bovine heparin plasma (TebuBio, UK), and 5% laked horse blood (Sigma-Aldrich, Ireland) was used to mimic in vivo conditions for static antibiofilm testing. For dynamic biofilm growth Simulated Wound Fluid (SWF) prepared as described previously with slight modification, 3% v/v fetal bovine serum in maximum recovery diluent (Merck, Ireland) was used ([Barbour et al., 2016]).
(§2) Minimum inhibitory concentration (MIC) was determined aerobically using the broth microdilution assay as recommended by the Clinical and Laboratory Standards Institute (CLSI) ([CLSI, 2018]). Briefly, 2-fold serial dilutions of the antimicrobial peptides of interest and conventional antibiotics were prepared in Mueller-Hinton broth (MHB) (Merck, Ireland) in a 96-well round bottom polypropylene plate (ThermoFisher, Ireland). Diluted bacterial suspensions in sterile PBS (Sigma, Ireland) were added to each well resulting in a final cell density of approximately 10^5 colony forming units (CFU)/mL. Microplates were incubated statically for 18 h at 37°C. In each assay, inoculated medium without antimicrobials and uninoculated medium served as growth and sterility controls, respectively. Conventional antibiotics, gentamicin (Merck, Ireland) and mupirocin (SLS, UK), were tested as comparator antimicrobials. The MIC value was defined as the lowest antimicrobial concentration showing no visible growth relative to positive (no antimicrobial agent) and negative controls (BHI alone). Experiments were conducted in triplicate, and independent replicates were performed three times to yield n = 3.

BH48 = experiment: microbe, parasite or virus in culture; type: cell-based, Staphylococcus aureus; settings: 18 h
Procedure: as §1, §2

SH1000 = experiment: microbe, parasite or virus in culture; type: cell-based, Staphylococcus aureus
Procedure: as §1, §2

USA300 = experiment: microbe, parasite or virus in culture; type: cell-based, Staphylococcus aureus
Procedure: as §1, §2

PAO1 = experiment: microbe, parasite or virus in culture; type: cell-based, Pseudomonas aeruginosa
Procedure: as §1, §2

HaCaT = experiment: MTT cell viability; type: cell-based, human; settings: 24 h, 37°C, 5% CO2, ethanol control
HUVEC = experiment: MTT cell viability; type: cell-based, human; settings: 24 h, 37°C, 5% CO2, ethanol control
THP-1 = type: cell-based, human; settings: THP-1; 24 h, 37°C, 5% CO2; ethanol control
Procedure: Sigma-Aldrich, Ireland). […] At 90% confluence, cells were centrifuged and diluted to a 1:5 ratio with complete RPMI. THP-1 cells were seeded in a 96 well plate at a density of 1 × 10^5 cells/mL with increasing concentrations of D-Bac8c^2,5 Leu. Cells were incubated for 24 h at 37°C with 5% CO2, 95% humidity. […] The absorbance was measured at 595 nm in a microplate spectrophotometer. Cell viability was calculated as a percentage of a control treated with PBS. Two technical replicates were performed each day on three independent days.

S. aureus strains = type: cell-based, Staphylococcus aureus; settings: 2 MRSA and 2 MSSA strains, summed up in text
Procedure: as §1
Minimum inhibitory concentration (MIC) was determined aerobically using the broth microdilution assay as recommended by the Clinical and Laboratory Standards Institute (CLSI) ([CLSI, 2018]). […]

[1] = Staphylococcus aureus, BH1CC (MRSA), MHB, about 10^5 CFU/mL, 37°C, n = 3, read-out: MIC
[2] = Staphylococcus aureus, BH48 (MSSA), MHB, about 10^5 CFU/mL, 37°C, n = 3, read-out: MIC
[3] = Staphylococcus aureus, SH1000 (MSSA), MHB, about 10^5 CFU/mL, 18 h, 37°C, n = 3, read-out: MIC
[4] = Staphylococcus aureus, USA300 (MRSA), MHB, about 10^5 CFU/mL, 18 h, 37°C, n = 3, read-out: MIC
[5] = Pseudomonas aeruginosa, PAO1, MHB, about 10^5 CFU/mL, 18 h, 37°C, n = 3, read-out: MIC
[6] = BH1CC (MRSA), MHB, about 10^5 CFU/mL, 37°C, n = 3
[7] = BH48 (MSSA), MHB, about 10^5 CFU/mL, 37°C, n = 3
[8] = SH1000 (MSSA), MHB, about 10^5 CFU/mL, 18 h, 37°C, n = 3
[9] = USA300 (MRSA), MHB, about 10^5 CFU/mL, 18 h, 37°C, n = 3
[10] = PAO1, MHB, about 10^5 CFU/mL, 18 h, 37°C, n = 3

- MIC (BH1CC): 128 µg/mL (≈ 104 µM)
- MIC (BH48): 128 µg/mL (≈ 104 µM)
- MIC (SH1000; SH1000, 18 h): 128 µg/mL (≈ 104 µM)
- MIC (USA300; USA300, 18 h): 128 µg/mL (≈ 104 µM)
- MIC (PAO1; PAO1, 18 h): 64 µg/mL (≈ 52.1 µM)
Compound: CC[C@H](C)[C@H](NC(=O)[C@H](CCCNC(=N)N)NC(=O)[C@H](Cc1ccccc1)NC(=O)[C@H](CCCNC(=N)N)NC(=O)[C@@H](N)CCCCN)C(=O)N[C@@H](CCCNC(=N)N)C(=O)N[C@H](C(=O)N[C@@H](CCCNC(=N)N)C(=O)N[C@H](C(N)=O)C(C)C)C(C)C [1,037] (H-KRFRIRVRV-NH2)

- MIC (BH1CC): >400 µg/mL
- MIC (BH48): >400 µg/mL
- MIC (SH1000; SH1000, 18 h): >400 µg/mL
- MIC (USA300; USA300, 18 h): >400 µg/mL
- MIC (PAO1; PAO1, 18 h): >400 µg/mL
Compound: CC(C)[C@H](NC(=O)[C@H](CCCCN)NC(=O)[C@H](CCCCN)NC(=O)[C@@H]1CCCN1C(=O)[C@H](CCCCN)NC(=O)[C@@H](NC(=O)[C@@H]1CCCN1C(=O)[C@H](CCCCN)NC(=O)[C@@H](NC(=O)[C@H](CCCCN)NC(=O)[C@H](CCCCN)NC(=O)[C@H](CO)NC(=O)[C@@H]1CCCN1)[C@@H](C)O)C(C)C)C(=O)N[C@@H](C)C(N)=O [DRGN-1] (H-PSKKTKPVKPKKVA-NH2)

- IC50 (50% cell viability), MTT (THP-1): 1%
Compound: CCO [Ethanol, reference compound]
- IC50 (50% cell viability), MTT (HaCaT): 1.2%
- IC50 (50% cell viability), MTT (HUVEC): 0.4%

- MIC (BH1CC; [1]): 2 µg/mL (≈ 3.87 µM)
- MIC (BH48; [2]): 4 µg/mL (≈ 7.74 µM)
- MIC (SH1000; [3]): 0.06 µg/mL (≈ 0.116 µM)
- MIC (USA300; [4]): 0.03 µg/mL (≈ 0.0581 µM)
- MIC (PAO1; [5]): > 512 µg/mL
Compound: CC(=O)O[C@H]1C[C@@]2(C)[C@@H](C[C@@H](O)[C@H]3[C@@]4(C)CC[C@@H](O)[C@@H](C)[C@@H]4CC[C@@]32C)/C1=C(\CCC=C(C)C)C(=O)O [Fusidic acid]

- MIC (BH1CC; [1]): 32 µg/mL (≈ 67 µM)
- MIC (BH48; [2]): 0.25 µg/mL (≈ 0.523 µM)
- MIC (SH1000; [3]): 0.25 µg/mL (≈ 0.523 µM)
- MIC (USA300; [4]): 0.5 µg/mL (≈ 1.05 µM)
- MIC (PAO1; [5]): 1 µg/mL (≈ 2.09 µM)
Compound: CNC(C)C1CCC(N)C(OC2C(N)CC(N)C(OC3OCC(C)(O)C(NC)C3O)C2O)O1 (stereo not drawn) [Gentamicin, gentamicin]

Compound: CC[C@H](C)[C@H](NC(=O)[C@H](CCCNC(=N)N)NC(=O)[C@@H](NC(=O)[C@H](C)NC(=O)[C@@H](NC(=O)[C@@H](NC(=O)[C@H](CC(C)C)NC(=O)[C@H](CCCNC(=N)N)NC(=O)[C@@H](N)C(C)C)[C@@H](C)CC)C(C)C)C(C)C)C(=O)N[C@@H](Cc1c[nH]c2ccccc12)C(=O)N[C@@H](CCCNC(=N)N)C(=O)N[C@@H](CCCNC(=N)N)C(N)=O [IDR-1018] (H-VRLIVAVRIWRR-NH2)
- MIC (BH1CC; [6]): 128 µg/mL (≈ 83.3 µM)
- MIC (BH48; [7]): 128 µg/mL (≈ 83.3 µM)
- MIC (SH1000; [8]): 64 µg/mL (≈ 41.7 µM)
- MIC (USA300; [9]): 64 µg/mL (≈ 41.7 µM)
- MIC (PAO1; [10]): 64 µg/mL (≈ 41.7 µM)

- MIC (BH1CC; [1]): 2 µg/mL (≈ 3.99 µM)
- MIC (BH48; [2]): 0.03 µg/mL (≈ 0.0599 µM)
- MIC (SH1000; [3]): 0.03 µg/mL (≈ 0.0599 µM)
- MIC (USA300; [4]): 0.06 µg/mL (≈ 0.12 µM)
- MIC (PAO1; [5]): > 2050 µg/mL
Compound: C/C(=C\C(=O)OCCCCCCCCC(=O)O)C[C@@H]1OC[C@H](C[C@@H]2O[C@H]2[C@@H](C)[C@H](C)O)[C@@H](O)[C@H]1O [Mupirocin, mupirocin]

Compound: CC[C@H](C)[C@H](NC(=O)CNC(=O)[C@H](CCCCN)NC(=O)[C@H](Cc1ccc(O)cc1)NC(=O)[C@H](CS)NC(=O)[C@@H](NC(=O)[C@H](CCCCN)NC(=O)[C@H](Cc1c[nH]c2ccccc12)NC(=O)[C@H](CS)NC(=O)[C@H](Cc1ccccc1)NC(=O)[C@@H](N)CCCNC(=N)N)C(C)C)C(=O)N[C@@H](CS)C(=O)N[C@@H](Cc1ccccc1)C(=O)N[C@@H](CCCCN)C(=O)N[C@@H](CCCCN)C(=O)N[C@@H](CS)C(=O)N[C@@H](CCCCN)C(N)=O [RP557] (H-RFCWKVCYKGICFKKCK-NH2; N-terminus assumed)
- MIC (BH1CC; [6]): 16 µg/mL (≈ 7.48 µM)
- MIC (BH48; [7]): 16 µg/mL (≈ 7.48 µM)
- MIC (SH1000; [8]): 16 µg/mL (≈ 7.48 µM)
- MIC (USA300; [9]): 16 µg/mL (≈ 7.48 µM)
- MIC (PAO1; [10]): 8 µg/mL (≈ 3.74 µM)
- MIC against S. aureus strains (S. aureus strains): 16 µg/mL (≈ 7.48 µM)
